What was measured:
[1] = target: T1, TYRO3 (Homo sapiens, UniProt Q06418); assay: TR-FRET kinase activity assay, TYRO3; type: biochemical; details: ATP at Km, 60 minutes
T1 sequence (Q06418 41-890): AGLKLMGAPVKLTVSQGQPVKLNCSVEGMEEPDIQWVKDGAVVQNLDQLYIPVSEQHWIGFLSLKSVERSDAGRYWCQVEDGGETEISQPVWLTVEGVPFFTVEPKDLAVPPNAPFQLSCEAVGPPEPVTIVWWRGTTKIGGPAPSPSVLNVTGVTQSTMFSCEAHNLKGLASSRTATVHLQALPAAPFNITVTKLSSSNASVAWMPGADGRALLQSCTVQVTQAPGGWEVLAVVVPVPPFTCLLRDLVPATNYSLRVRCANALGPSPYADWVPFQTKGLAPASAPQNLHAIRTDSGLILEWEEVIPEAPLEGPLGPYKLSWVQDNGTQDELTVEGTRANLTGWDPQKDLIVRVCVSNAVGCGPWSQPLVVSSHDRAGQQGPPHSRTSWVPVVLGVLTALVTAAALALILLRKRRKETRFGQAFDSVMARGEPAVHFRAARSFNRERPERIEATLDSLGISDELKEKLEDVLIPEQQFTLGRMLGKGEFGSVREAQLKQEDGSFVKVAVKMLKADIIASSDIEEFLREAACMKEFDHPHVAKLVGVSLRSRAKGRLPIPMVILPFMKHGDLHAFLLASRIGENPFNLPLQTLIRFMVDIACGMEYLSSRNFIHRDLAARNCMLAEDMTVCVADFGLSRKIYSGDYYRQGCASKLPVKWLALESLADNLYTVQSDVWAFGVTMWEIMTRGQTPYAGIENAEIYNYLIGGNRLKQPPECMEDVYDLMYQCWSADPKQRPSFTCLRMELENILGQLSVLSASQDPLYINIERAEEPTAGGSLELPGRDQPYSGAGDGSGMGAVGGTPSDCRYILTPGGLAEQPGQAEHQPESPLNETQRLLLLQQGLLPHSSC
Procedure, shortened: (§1)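 Enzyme + labelled peptide + cpd premixed; ATP at per-enzyme Km starts rxn. 60 min RT, HEPES pH 7.5/MgCl2/EGTA/Brij 35/DTT buffer. Stop 12.5 mM EDTA, Eu phospho-Ab 30 min dark, TR-FRET read → IC50.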

[2] = target: T2, MERTK (Homo sapiens, UniProt Q12866); assay: TR-FRET kinase activity assay, MERTK; type: biochemical; details: for IC50: TR-FRET activity assay, ATP at Km, 60 minutes, read-out: Mer IC50; for FLT3/Mer ratio (FLT3 IC50/Mer IC50): ratio of Mer to FLT3: FLT3 IC50/Mer IC50
T2 sequence (Q12866 21-999): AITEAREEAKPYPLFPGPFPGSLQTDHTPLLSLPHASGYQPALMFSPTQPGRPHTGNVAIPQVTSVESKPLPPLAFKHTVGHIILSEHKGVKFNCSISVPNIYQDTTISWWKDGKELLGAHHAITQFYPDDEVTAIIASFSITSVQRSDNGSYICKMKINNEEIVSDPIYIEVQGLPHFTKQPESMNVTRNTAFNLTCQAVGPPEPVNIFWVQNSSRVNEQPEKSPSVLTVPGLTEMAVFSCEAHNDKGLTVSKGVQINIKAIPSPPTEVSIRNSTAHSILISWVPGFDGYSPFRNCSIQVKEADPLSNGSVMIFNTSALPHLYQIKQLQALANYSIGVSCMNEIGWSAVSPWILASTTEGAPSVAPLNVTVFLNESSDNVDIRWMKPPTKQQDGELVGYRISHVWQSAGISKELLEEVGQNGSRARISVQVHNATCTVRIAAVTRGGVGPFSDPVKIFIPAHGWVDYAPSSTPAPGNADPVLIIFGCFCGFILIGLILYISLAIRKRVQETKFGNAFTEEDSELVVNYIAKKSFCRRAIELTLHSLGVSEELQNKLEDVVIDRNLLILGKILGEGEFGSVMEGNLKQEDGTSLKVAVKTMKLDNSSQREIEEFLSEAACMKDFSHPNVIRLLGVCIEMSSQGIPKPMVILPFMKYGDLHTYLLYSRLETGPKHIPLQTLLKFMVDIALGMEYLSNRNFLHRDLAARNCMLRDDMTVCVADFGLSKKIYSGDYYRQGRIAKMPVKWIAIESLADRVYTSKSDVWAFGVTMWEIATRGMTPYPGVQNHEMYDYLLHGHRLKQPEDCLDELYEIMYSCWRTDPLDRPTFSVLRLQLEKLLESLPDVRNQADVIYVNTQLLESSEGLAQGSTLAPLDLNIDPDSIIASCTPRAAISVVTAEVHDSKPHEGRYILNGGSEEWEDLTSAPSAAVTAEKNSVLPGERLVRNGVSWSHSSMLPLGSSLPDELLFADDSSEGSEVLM
Procedure, shortened: as §1

Row | IC50 [1] | IC50 [2] | FLT3/Mer ratio (FLT3 IC50/Mer IC50) [2] | Structure (SMILES)
1 | ≤ 100 nM | ≤ 100 nM | +++ (“+++” represents a ratio of >100) | COC[C@H](C)Nc1ncc2c(-c3cnn([C@@H]4CCC(C(=O)OC(C)(C)C)C4)c3)cc([C@H]3CC[C@H](O)CC3)n2n1 (stereo partly drawn) [Compound 364]
2 | ≤ 100 nM | ≤ 100 nM | +++ (“+++” represents a ratio of >100) | COC[C@H](C)Nc1ncc2c(-c3cnn([C@H]4CCC(C(=O)OC(C)(C)C)C4)c3)cc([C@H]3CC[C@H](O)CC3)n2n1 (stereo partly drawn) [Compound 365]
3 | ≤ 100 nM | ≤ 100 nM | +++ (“+++” represents a ratio of >100) | COCC(C)Nc1ncc2c(-c3cnn(C(C)(C)C(=O)N4CCOC(C)(C)C4)c3)cc(C3CCC(O)CC3)n2n1 (stereo not drawn) [Compound 366]
4 | ≤ 100 nM | ≤ 100 nM | +++ (“+++” represents a ratio of >100) | COC[C@H](C)Nc1ncc2c(-c3cnn(C(C)(C)C(=O)N4C[C@@H](C)O[C@H](C)C4)c3)cc([C@H]3CC[C@H](O)CC3)n2n1 [Compound 367]
5 | ≤ 100 nM | ≤ 100 nM | +++ (“+++” represents a ratio of >100) | COC[C@H](C)Nc1ncc2c(-c3cnn(C[C@@H]4CCC(=O)N4)c3)cc([C@H]3CC[C@H](O)CC3)n2n1 [Compound 368]
6 | ≤ 100 nM | ≤ 100 nM | +++ (“+++” represents a ratio of >100) | COC[C@H](C)Nc1ncc2c(-c3ccnc(OC4CCNCC4)c3)cc([C@H]3CC[C@H](O)CC3)n2n1 [Compound 369]
7 | 100 to 1000 nM | ≤ 100 nM | +++ (“+++” represents a ratio of >100) | COCC(C)Nc1ncc2c(C3CCCN(C(C)=O)C3)cc(C3CCC(O)CC3)n2n1 (stereo not drawn) [Compound 371]
8 | ≤ 100 nM | ≤ 100 nM | +++ (“+++” represents a ratio of >100) | COCC(C)Nc1ncc2c(C3CCN(c4ccnc(C)n4)C3)cc(C3CCC(O)CC3)n2n1 (stereo not drawn) [Compound 373]
9 | ≤ 100 nM | ≤ 100 nM | +++ (“+++” represents a ratio of >100) | COCC(C)Nc1ncc2c(C3CCN(c4ccnc(C)n4)C3)cc(C3CCC(O)CC3)n2n1 (stereo not drawn) [Compound 374]
10 | ≤ 100 nM | ≤ 100 nM | +++ (“+++” represents a ratio of >100) | COC[C@H](C)Nc1ncc2c([C@@H]3CCN(S(C)(=O)=O)C3)cc([C@H]3CC[C@H](O)CC3)n2n1 [Compound 375]
11 | ≤ 100 nM | ≤ 100 nM | +++ (“+++” represents a ratio of >100) | COC[C@H](C)Nc1ncc2c([C@H]3CCN(S(C)(=O)=O)C3)cc([C@H]3CC[C@H](O)CC3)n2n1 [Compound 376]
12 | ≤ 100 nM | ≤ 100 nM | +++ (“+++” represents a ratio of >100) | COC[C@H](C)Nc1ncc2c([C@H]3CCCN(c4ccnc(C)n4)C3)cc([C@H]3CC[C@H](O)CC3)n2n1 [Compound 377]
13 | 100 to 1000 nM | ≤ 100 nM | +++ (“+++” represents a ratio of >100) | COC[C@H](C)Nc1ncc2c([C@@H]3CCCN(c4ccnc(C)n4)C3)cc([C@H]3CC[C@H](O)CC3)n2n1 [Compound 378]
14 | ≤ 100 nM | ≤ 100 nM | +++ (“+++” represents a ratio of >100) | COCC(C)Nc1ncc2c(-c3cnn(CC4CCCO4)c3)cc(C3CCC(O)CC3)n2n1 (stereo not drawn) [Compound 379]
15 | ≤ 100 nM | ≤ 100 nM | +++ (“+++” represents a ratio of >100) | COC[C@H](C)Nc1ncc2c(-c3cnn(CC4CCCO4)c3)cc([C@H]3CC[C@H](O)CC3)n2n1 (stereo partly drawn) [Compound 380]
16 | ≤ 100 nM | ≤ 100 nM | +++ (“+++” represents a ratio of >100) | COC[C@H](C)Nc1ncc2c(-c3ccnc(C)c3)cc([C@H]3CC[C@@](C)(O)CC3)n2n1 [Compound 381]
17 | ≤ 100 nM | ≤ 100 nM | +++ (“+++” represents a ratio of >100) | COC[C@H](C)Nc1ncc2c(-c3cnn(CCC#N)c3)cc([C@H]3CC[C@](C)(O)CC3)n2n1 [Compound 382]
18 | ≤ 100 nM | ≤ 100 nM | +++ (“+++” represents a ratio of >100) | CNC(=O)c1cc(-c2cc([C@H]3CC[C@H](O)CC3)n3nc(N[C@@H](C)CC(F)(F)F)ncc23)ccn1 [Compound 384]
19 | ≤ 100 nM | ≤ 100 nM | +++ (“+++” represents a ratio of >100) | CNC(=O)c1cc(-c2cc([C@H]3CC[C@H](O)CC3)n3nc(N[C@@H](C)COC(F)F)ncc23)cc(C)n1 [Compound 385]
20 | ≤ 100 nM | ≤ 100 nM | +++ (“+++” represents a ratio of >100) | COC[C@H](C)Nc1ncc2c(-c3ccnc(O[C@H]4CCNC4)c3)cc([C@H]3CC[C@H](O)CC3)n2n1 [Compound 386]
21 | ≤ 100 nM | ≤ 100 nM | +++ (“+++” represents a ratio of >100) | COC[C@H](C)Nc1ncc2c(-c3ccnc(O[C@H]4CCCNC4)c3)cc([C@H]3CC[C@H](O)CC3)n2n1 [Compound 389]
22 | ≤ 100 nM | ≤ 100 nM | +++ (“+++” represents a ratio of >100) | COC[C@H](C)Nc1ncc2c(-c3ccnc(O[C@@H]4CCCNC4)c3)cc([C@H]3CC[C@H](O)CC3)n2n1 [Compound 390]
23 | ≤ 100 nM | ≤ 100 nM | +++ (“+++” represents a ratio of >100) | COC[C@H](C)Nc1ncc2c(-c3ccnc(C)c3)cc([C@H]3CC[C@](C)(O)CC3)n2n1 [Compound 391]
24 | ≤ 100 nM | ≤ 100 nM | +++ (“+++” represents a ratio of >100) | COC[C@H](C)Nc1ncc2c(-c3cnn(CC4CCOCC4)c3)cc([C@H]3CC[C@H](O)CC3)n2n1 [Compound 392]

Row | Structure (SMILES) | IC50 [1] | IC50 [2] | FLT3/Mer ratio (FLT3 IC50/Mer IC50) [2]
25 | CC(=O)N1CCN(Cc2ccc(-c3cc(C4CCC(O)CC4)n4nc(NC(C)CC(F)(F)F)ncc34)cc2)CC1 (stereo not drawn) [Compound 370] | ≤ 100 nM | ≤ 100 nM | + (“+” represents a ratio of >2.0 and <10)
26 | COC[C@H](C)Nc1ncc2c([C@@H]3CCCN(C(C)=O)C3)cc([C@H]3CC[C@H](O)CC3)n2n1 [Compound 372] | 1000 to 10000 nM | 100 to 1000 nM | ++ (“++” represents a ratio of between 10 and 100)
27 | C[C@@H](CN(C)C)Nc1ncc2c(-c3cnn(C4COC4)c3)cc([C@H]3CC[C@H](O)CC3)n2n1 [Compound 387] | 100 to 1000 nM | 100 to 1000 nM | ++ (“++” represents a ratio of between 10 and 100)
28 | C[C@H](CN(C)C)Nc1ncc2c(-c3cnn(C4COC4)c3)cc([C@H]3CC[C@H](O)CC3)n2n1 [Compound 388] | 1000 to 10000 nM | 100 to 1000 nM | ++ (“++” represents a ratio of between 10 and 100)

— patent publication US11040981B2, “Pyrrolotriazine compounds and methods of inhibiting TAM kinases” (Syros Pharmaceuticals, Inc., priority 2017, dated 2021)
